Each structure is given as a SMILES string. pIC50: −log10 of the molar value.

T1 sequence (Q99705 whole entry): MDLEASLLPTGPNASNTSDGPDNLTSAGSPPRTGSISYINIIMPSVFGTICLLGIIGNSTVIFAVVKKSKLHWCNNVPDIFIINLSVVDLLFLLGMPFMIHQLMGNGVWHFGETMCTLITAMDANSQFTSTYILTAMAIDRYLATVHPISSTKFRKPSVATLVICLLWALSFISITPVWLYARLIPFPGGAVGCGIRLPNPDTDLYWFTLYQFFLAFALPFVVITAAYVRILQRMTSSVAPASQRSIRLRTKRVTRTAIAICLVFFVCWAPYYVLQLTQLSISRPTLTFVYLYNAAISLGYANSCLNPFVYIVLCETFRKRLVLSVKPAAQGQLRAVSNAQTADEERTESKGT

The assay has as its target T1, human MCH-1R (Homo sapiens, UniProt Q99705).
T1 construct: expressed in transfected cells; host or cells: CHO-K1 (American Type Culture Collection), membrane samples
Put plainly: MCH binding inhibition test. As to conditions: inhibition of specific [125I]MCH binding to membranes of CHO-K1 cells expressing human MCH-1R; 25° C., one hour, pH 7.4. The procedure: A human MCH-1R encoding cDNA sequence [FEBS Letters, Vol. 398, 253 (1996); Biochimica et Biophisica Acta, Vol. 1401, 216 (1998)] was cloned to a plasmid vector pEF/myc/cyto (Invitrogen Corporation). The obtained expression vector was transfected to host cells CHO-K1 (American Type Culture Collection) using Lipofectamine Plus Reagent (Life Technology Inc.) to provide MCH-1R expression cells.
Membrane samples prepared from the MCH-1R expression cells were incubated with each test compound and […] of [^125I]MCH (NEN Co.), in an assay buffer (50 mM Tris buffer comprising 10 mM magnesium chloride, 2 mM ethylenediamine tetraacetate, 0.01% bacitracin and 0.2% bovine serum albumin; pH 7.4) at 25° C. for an hour, followed by filtration through a glass filter CF/C (Wattman Co.). After washing the glass filter with 50 mM Tris buffer (pH 7.4) comprising 10 mM magnesium chloride, 2 mM ethylenediamine tetraacetate and 0.04% Tween-20, the radioactive activity on the glass filter was measured.
Broadly, the pIC50 is the negative decadic logarithm of the IC50, by convention in mol/L. Lower therefore signals a large IC50. `CC(c1ccc(/C(=N/OCCF)c2ccc(F)c(F)c2)nc1)N1CCC2(CC1)OCc1ccncc12` (single isomer, unassigned) [Example 2-1-3, (E)-(3,4-difluorophenyl){5-[1-(1H,1′H-spiro[furo[3,4-c]pyridine-3,4′-piperidin]-1′-yl)ethyl]pyridin-2-yl}methanone O-(2-fluoroethyl)oxime] had a pIC50 of 8.81.
The molecule `CC(c1ccc(/C(=N/OCC(C)(C)O)c2ccc(F)c(F)c2)nc1)N1CCC2(CC1)OCc1ccncc12` (single isomer, unassigned) [Example 3-1-13, (E)-(3,4-difluorophenyl){5-[1-(1H,1′H-spiro[furo[3,4-c]pyridine-3,4′-piperidin]-1′-yl)ethyl]-2-pyridinyl}methanone O-(2-hydroxy-2-methylpropyl)oxime] gave a pIC50 of 8.40.
The molecule `CCO/N=C(\c1ccc(F)c(F)c1)c1ncc(CN2CCC3(CC2)OCc2ccncc23)cn1` [Example 1-3-2, (E) or (Z)-(3,4-difluorophenyl)[5-(1H,1′H-spiro[furo[3,4-c]pyridine-3,4′-piperidin]-1′-ylmethyl)pyrimidin-2-yl]methanone O-ethyloxime] showed a pIC50 of 8.05.
As for `FCCO/N=C(/c1ccc(CN2CCC3(CC2)OCc2ccncc23)cc1)c1ccc(F)c(F)c1` [Example 2-1-2, (Z)-(3,4-difluorophenyl)[4-(1H,1′H-spiro[furo[3,4-c]pyridine-3,4′-piperidin]-1′-ylmethyl)phenyl]methanone O-(2-fluoroethyl)oxime], the figure is 10.15; as for `CN(C)C(=O)CO/N=C(/c1ccc(CN2CCC3(CC2)OCc2cc(F)ncc23)cc1)c1ccc(F)c(F)c1` [Example 2-6, 2-{[((1Z)-(3,4-difluorophenyl){4-[(6-fluoro-1H,1′H-spiro[furo[3,4-c]pyridine-3,4′-piperidin]-1′-yl)methyl]phenyl}methylene)amino]oxy}-N,N-dimethylacetamide], 9.57; as for `Cn1cc2c(cc1=O)C1(CCN(Cc3ccc(/C(=N/OCC#N)c4ccc(F)c(F)c4)nc3)CC1)OC2` [Example 2-10-2, {[((1E)-(3,4-difluorophenyl){5-[(5-methyl-6-oxo-5,6-dihydro-1′H,3H-spiro[furo[3,4-c]pyridine-1,4′-piperidin]-1′-yl)methyl]pyridin-2-yl}methylene)amino]oxy}acetonitrile], 8.04.
`CCO/N=C(\c1ccc(F)c(F)c1)c1ccc(CN2CCC3(CC2)OCc2cc[n+]([O-])cc23)cn1` [Example 3-1-11, (E)-(3,4-difluorophenyl){5-[(5-oxido-1H,1′H-spiro[furo[3,4-c]pyridine-3,4′-piperidin]-1′-yl)methyl]-2-pyridinyl}methanone O-ethyloxime]: the pIC50 is 8.33.
As for `Cn1cc2c(cc1=O)C1(CCN(Cc3ccc(/C(=N/OCF)c4ccc(F)c(F)c4)nc3)CC1)OC2` [Example 3-1-15, 1′-[(6-{(E)-(3,4-difluorophenyl)[(fluoromethoxy)imino]methyl}-3-pyridinyl)methyl]-5-methyl-3,5-dihydro-6H-spiro[furo[3,4-c]pyridine-1,4′-piperidin]-6-one], the figure is 8.08.

For the origin of these results see patent publication US20090247560A1, “Diaryl ketimine derivative” (Banyu Pharmaceutical Co., Ltd., priority 2006, published 2009).
